From PMC2363072, “Oral topotecan: bioavailability and effect of food co-administration” (British Journal of Cancer, 1999)
Where two headings read alike, the source gives them in different places.

Tests used:
[1] = clinical; format: in vivo, human (patients with solid tumours); conditions: for Urinary excretion: 24 h urine
From the text: (§1) Topotecan (Hycamtin) is one of the prototypes of a promising new class of cytotoxic drugs that act through inhibition of topoisomerase I. Topoisomerase I is a nuclear enzyme that relieves the torsional strain in DNA ahead of the moving replication fork (Hsiang et al, 1988, 1989). Inhibition of the enzyme results in lethal DNA damage during transcription and replication. The E-ring lactone in the basic structure of topotecan is considered to be essential for interaction with the topoisomerase I enzyme (Hertzberg et al, 1989; Pommier et al, 1991). […] Prolonged administra- tion increases the probability that tumour cells will be exposed to topotecan during DNA replication, i.e. when they are most suscep- tible. In-vivo in patients there is yet no convincing evidence of a clinically relevant schedule dependency. Intravenous (i.v.) topotecan administered as daily 30-min infu- sions for 5 days has recently received marketing approval for the treatment of patients with ovarian cancer after failure of initial or subsequent platinum-based chemotherapy. An oral gelatin capsule formulation has now been developed (Creemers et al, 1997; Gerrits et al 1998). A phase I study has determined the maximum tolerated dose (MTD) for oral topotecan to be 2.3 mg m-2 for the daily times five dosing schedule (Gerrits et al, 1998). […] In these studies, bioavailability was tested in fasted patients. […] Food can have marked effects on drug absorption by increasing, decreasing, or sometimes simply delaying it. Food can also influence drug metabolism, and certain food components, such as protein and fat, are particularly potent in this respect. For an oral formulation it is therefore essential to investigate the effect of food co-administration on the pharmacokinetics. The aims of the present study were (1) to evaluate the effect of fed and fasted conditions on the bioavailability and pharmaco- kinetics of oral topotecan, and (2) to determine the absolute bioavailability of the gelatin capsule formulation. Oral topotecan: bioavailability and effect of food co-administration VMM Herben1,2 , H Rosing1 , WW ten Bokkel Huinink2 , DM van Zomeren1 , D Batchelor2 , E Doyle3 , FD Beusenberg4 , JH Beijnen1,2 and JHM Schellens2 1 Slotervaart Hospital/The Netherlands Cancer Institute, Department of Pharmacy and Pharmacology, Amsterdam, The Netherlands; 2 Antoni van Leeuwenhoek Hospital/The Netherlands Cancer Institute, Department of Medical Oncology, Amsterdam, The Netherlands; 3 SmithKline Beecham Pharmaceuticals, Department of Drug Metabolism and Pharmacokinetics, Hertfordshire, UK; 4 SmithKline Beecham Farma, Rijswijk, The Netherlands Summary The aims of the study were twofold: (1) to evaluate the effect of food on the relative oral bioavailability of topotecan gelatin capsules in patients with solid tumours, and (2) to determine the absolute bioavailability of oral topotecan with reference to the intravenous (i.v.) formulation. […] On day 1 of the first treatment course patients were administered 2.3 mg m-2 day-1 of oral topotecan with or without a high-fat breakfast. They crossed over to receive the alternate regimen on day 2. In the second course (3 weeks later) fasted patients received topotecan orally (2.3 mg m-2 day-1 ) or i.v. ([…]). They crossed over to receive the alternate regimen on day 2. On days 3-5 of both treatment courses patients received oral topotecan. Plasma pharmacokinetics were performed on days 1 and 2 of the first and second course using a high-performance liquid chromatographic assay. Eighteen patients were enrolled in the study. The ratio of the area under the curve to infinity during fasted and high-fat treatment was 0.93 0.23 (90% confidence interval (CI) 0.83-1.03). Maximal plasma concentrations of topotecan were similar after ingestion of the capsules with (10.6 4.4 ng ml-1 ) or without food (9.2 4.1 ng ml-1 ) (P = 0.130). […]

[2] = tested on: topoisomerase I; design: method as in Johnson and Wood, personal communication; conditions: ref Johnson and Wood, personal communication; cited from earlier work
[3] = clinical; design: species or system human (patients with solid tumours); conditions: human, in vivo
From the text: as §1

[4] = design: method as in Eckardt et al, 1995; Schellens et al, 1996; conditions: i.v. formulation administered orally; fasted patients; ref Eckardt et al, 1995; Schellens et al, 1996; cited from earlier work
[5] = design: method as in Gerrits et al, 1998; conditions: oral gelatin capsule, ref Gerrits et al, 1998, cited from earlier work
[6] = design: method as in Davies et al, 1995; conditions: dogs, ref Davies et al, 1995; cited from earlier work
[7] = metabolite as total of lactone and carboxylate, corrected for administered topotecan dose
[8] = total of the analyte, plasma, after i.v. topotecan 1.5 mg m-2
[9] = total, corrected for actual administered topotecan dose

SMILES: CC[C@@]1(O)C(=O)OCc2c1cc1n(c2=O)Cc2cc3c(CNC)c(O)ccc3nc2-1 [N-desmethyltopotecan]
- metabolic ratio (metabolite:topotecan AUC ratio) ([1]; after i.v. administration): 4.5%
- time at which maximal total metabolite plasma levels were reached, median ([1]; after ingestion of topotecan capsules): 4.0 h
- metabolic ratio (metabolite:topotecan AUC ratio) ([1]; after oral administration): 6.9%
- time at which maximal total metabolite plasma levels were reached, median ([1]; after the start of the i.v. infusion): 2.1 h
- lactone plasma concentrations ([1]; lactone form of metabolite, lower limit of quantification 0.1 ng ml-1): below the detection limit in six patients
- oral:i.v. AUC0- (to infinity) ratio [1, 7]: 62%
- oral:i.v. AUC0-t ratio [1, 7]: 71%
- Cmax ([1]; plasma, after i.v. topotecan 1.5 mg m-2): 0.44 ng/mL
- Cmax ([1]; plasma, after oral topotecan 2.3 mg m-2): 0.34 ng/mL
- t1/2 ratio oral/i.v. ([1]; total): 1.17
- AUC0-t ([1]; total (lactone + carboxylate) of the analyte, plasma, after oral topotecan 2.3 mg m-2): 2.7 ng·h/mL
- Urinary excretion ([1]; total of the analyte, % of i.v. topotecan dose): 0.9%
- Urinary excretion ([1]; total of the analyte, % of oral topotecan dose (topotecan corrected for F)): 1.1%
- t1/2 (apparent terminal half-life) ([1]; total of the analyte, after i.v. topotecan 1.5 mg m-2): 6.21 h
- t1/2 (apparent terminal half-life) ([1]; total of the analyte, after oral topotecan 2.3 mg m-2): 7.25 h
- AUC0- (area under the curve to infinity) [1, 8]: 4.8 ng·h/mL
- AUC0-t [1, 8]: 2.4 ng·h/mL
- AUC0- (area under the curve to infinity) ([1]; total of the analyte, plasma, after oral topotecan 2.3 mg m-2): 4.6 ng·h/mL
- AUC0- (to infinity) ratio oral/i.v. [1, 9]: 0.62
- AUC0-t ratio oral/i.v. [1, 9]: 0.71
- Cmax ratio oral/i.v. [1, 9]: 0.51
- topoisomerase I-inhibiting activity relative to parent compound [2]: slightly less topoisomerase I-inhibiting activity than the parent compound

SMILES: CC[C@@]1(O)C(=O)OCc2c1cc1n(c2=O)Cc2cc3c(CN(C)C)c(O)ccc3nc2-1 [topotecan, Topotecan]
- plasma concentration at the pre-dose time point for day 2 (carry-over), mean [3]: 0.43 ng/mL
- AUC0- (to infinity) ratio fasted/fed ([3]; po, 2.3 mg): 0.88
- time needed to reach maximal plasma levels (tmax), median ([3]; po, 2.3 mg): 2.0 h
- AUC0-t ([3]; po, 2.3 mg, AUC0-t): 19.6 ng·h/mL
- half-life ([3]; po, 2.3 mg, t1/2 (apparent terminal half-life)): 3.84 h
- Tmax ([3]; po, 2.3 mg, time needed to reach maximal plasma levels (tmax), median): 3.1 h
- half-life ([3]; total, oral 2.3 mg m-2, fed, read-out: t1/2 (apparent terminal half-life) (converted)): 3.49 h
- absolute bioavailability (F) using AUC0-t ([1]; human, in vivo): 40%
- bioavailability ([1]; human, in vivo, absolute bioavailability (F)): 42 ± 13%
- bioavailability ([1]; human, in vivo, bioavailability calculated using only the lactone data): 38%
- coefficient of variation of the AUC0- (interpatient variability) ([1]; human, in vivo, iv): 25%
- lactone:total topotecan AUC0- ratio ([1]; human, in vivo, iv): 0.38
- AUC0- (area under the curve to infinity) ([1]; human, in vivo, iv, 1.5 mg): 38.6 ng·h/mL
- t1/2 (apparent terminal half-life) ([1]; human, in vivo, iv, 1.5 mg): 2.64 h
- Cmax ([1]; human, in vivo, iv, 1.5 mg, Cmax): 33.9 ng/mL
- coefficient of variation of the AUC0- (interpatient variability) ([1]; human, in vivo, po): 44%
- lactone:total topotecan AUC0- ratio ([1]; human, in vivo, po): 0.35
- AUC0- (area under the curve to infinity) ([1]; human, in vivo, po, 2.3 mg): 22.7 ng·h/mL
- AUC0-t ([1]; human, in vivo, po, 2.3 mg): 20.4 ng·h/mL
- Cmax ([1]; human, in vivo, po, 2.3 mg, Cmax): 6.3 ng/mL
- bioavailability [4]: 30-44%
- maximum tolerated dose (MTD) ([5]; daily times five dosing schedule): 2.3 mg m-2
- Dose-limiting toxicity (DLT) ([5]; daily times five): NCI CTC grade 4 neutropenia
- part of an absorbed oral dose that enters the blood circulation as the open-ring form [6]: approximately 2.5%
